For 5 compounds, inhibition results are on record in patent US20260184663A1, “INDENE COMPOUNDS, PHARMACEUTICAL COMPOSITIONS THEREOF, AND THEIR THERAPEUTIC APPLICATIONS” (NucMito Pharmaceuticals co. Ltd., priority 2022, published 2026).

Where two headings read alike, the source gives them in different places. Some results are limits rather than exact numbers.

What all share (format): cell-based
Assay [1] relates to alpha-smooth muscle actin (α-SMA). Nature of the assay: Inhibition of TGF-β induced expression of alpha-smooth muscle actin (α-SMA) in CFSC cells (western blot). Particulars: compound at 10 μM, TGF-β (10 ng/mL), 24 hours, band intensity vs TGF-β only. The method, then:
The ability of a compound to inhabit the TGF-β induced expression of alpha-smooth muscle actin (α-SMA) was evaluated in CCl4-treated fat storing (CFSC) cells. α-SMA is considered as a reliable marker of hepatic stellate cell activation and a key biomarker for liver fibrosis.
CFSC cells maintained in a DMEM medium supplemented with 10% fetal bovine serum were seeded to 12-well culture dishes and grown to a confluence of 60-70% the next day. Culture was changed to a serum-free DMEM medium, and the cells were treated with a compound at 10 μM in the presence of TGF-β (10 ng/mL). The cells were incubated for another 24 hours. All culture was maintained at 37° C. in 5% carbon dioxide.
An NP-40 lysate solution (50 mM Tris (pH 7.4), 150 mM NaCl, 1% NP-40) with EDTA free cocktail added was used to lyse the cells on ice for 30 min. The lysate was collected and centrifuged at 4° C. for 10 min at 12,000 rpm. The pellet was discarded and the supernatant was transferred to a new tube. Cell lysates were loaded with 5× loading buffer and boiled for 10 min, resolved by 10% SDS-polyacrylamide gel electrophoresis (SDS-PAGE), and transferred to PVDF membrane. The membrane was blocked with 5% skim milk in Tris-buffered saline and TWEEN® 20 (TBST; 10 mM Tris-HCl (pH 8.0), 150 mM NaCl, 0.1% TWEEN® 20) for 1 h at room temperature and then incubated with α-SMA and β-actin antibodies overnight at 4° C. After washing twice with TBST, the membrane was probed with a horseradish […] anti-immunoglobulin (1:5000 dilution) for 1 h at room temperature. After two subsequent rinses in TBST, immunoreactive products were reacted with ECL and visualized by a UVP CHEMSTUDIO™ imaging system. The western blotting bands are quantitated using an ImageJ software. The percentage of inhibition was obtained by calculating the percentage decrease in the band intensity compared to the one treated with TGF-β only.
The results are summarized in Table 1, where A represents a value no less of 80% inhibition, B represents a value less than […] but no less than […], C represents a value less than 50% but no less than 30% inhibition, and D represents a value less than 30% inhibition with a compound at 10 μM.

Assay [2] has as its system MDA-MB-231 (breast cancer). The assay can be described thus: Antiproliferative activity (CCK-8 cell viability), MDA-MB-231. Particulars: Homo sapiens, 72 h, read-out: Antiproliferative activity in cancerous cells, MDA-MB-231 (inhibition of cell growth); for inhibition at 3.3 µM: Compound concentration: 3.3 μM; for inhibition at 10 µM: Compound concentration: 10 μM. Summed up:
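MDA-MB-231 breast cancer cells, grown in DMEM with 10% FBS, were plated in 96-well plates at 2,000-5,000 cells/well. Once attached, they were exposed to compound and incubated at 37° C. for 72 h. Viability was then measured with CCK-8 (10 μL per well, 4 h at 37° C.) by absorbance at 450 nm, relative to DMSO vehicle wells.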

In a further assay the test system is HepG2 (liver cancer). Nature of the assay: Antiproliferative activity (CCK-8 cell viability), HepG2. Particulars: Homo sapiens, 72 h, read-out: Antiproliferative activity in cancerous cells, HepG2 (inhibition of cell growth); for inhibition at 3.3 µM: Compound concentration: 3.3 μM; for inhibition at 10 µM: Compound concentration: 10 μM. The essentials: (§1)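 Cells grown in DMEM (HepG2, SW480), MEM (HeLa) or F-12K (A549), each with 10% FBS, then exposed to compound at 3.3, 10 or 30 μM for 72 h at 37 °C. CCK-8 absorbance at 450 nm; viability expressed as percent of DMSO-treated cells, graded as growth inhibition bands.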

A further assay concerns SW480 (colon cancer). Nature of the assay: Antiproliferative activity (CCK-8 cell viability), SW480. Particulars: Homo sapiens, 72 h, read-out: Antiproliferative activity in cancerous cells, SW480 (inhibition of cell growth); for inhibition at 3.3 µM: Compound concentration: 3.3 μM; for inhibition at 10 µM: Compound concentration: 10 μM. The essentials:
as §1

Assay [3] has as its system B16F10 (malignant melanoma). The assay can be described thus: Antiproliferative activity (CCK-8 cell viability), B16F10. Particulars: Mus musculus, 72 h, read-out: Antiproliferative activity in cancerous cells, B16F10 (inhibition of cell growth); for inhibition at 3.3 µM: B16-F10, Compound concentration: 3.3 μM; for inhibition at 10 µM: B16-F10, Compound concentration: 10 μM. The essentials: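 B16F10 melanoma cells grown in DMEM with 10% FBS were plated in 96-well plates at 2,000-5,000 cells/well. After attachment they were exposed to compound in medium for 72 h at 37° C. CCK-8 solution (10 μL) was then added, and after 4 h at 37° C absorbance was read at 450 nm.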

Assay [4] concerns A431 (epidermoid carcinoma). Nature of the assay: Antiproliferative activity (CCK-8 cell viability), A431. Particulars: Homo sapiens, 72 h, read-out: Antiproliferative activity in cancerous cells, A431 (inhibition of cell growth); for inhibition at 3.3 µM: A-431, Compound concentration: 3.3 μM; for inhibition at 10 µM: A-431, Compound concentration: 10 μM. The essentials: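 A431 epidermoid carcinoma cells grown in DMEM with 10% FBS were plated at 2,000-5,000 cells/well in 96-well plates. After attachment they were exposed to compound at 3.3 μM, 10 μM, or 30 μM for 72 h at 37° C. Viability was then assessed by CCK-8 against DMSO vehicle-treated wells.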

Assay [5] has as its system A549 (lung adenocarcinoma). The assay can be described thus: Antiproliferative activity (CCK-8 cell viability), A549. The following applies: Homo sapiens, 72 h; for inhibition at 3.3 µM: Compound concentration: 3.3 μM; for inhibition at 10 µM: Compound concentration: 10 μM; for inhibition at 30 µM: Compound concentration: 30 μM. The essentials:
as §1

In another assay the test system is HeLa (cervical cancer). The assay can be described thus: Antiproliferative activity (CCK-8 cell viability), HeLa. The following applies: Homo sapiens, 72 h, read-out: Antiproliferative activity in cancerous cells, HELA (inhibition of cell growth); for inhibition at 3.3 µM: Compound concentration: 3.3 μM; for inhibition at 10 µM: Compound concentration: 10 μM. The essentials: as §1

The mark [6] stands for this setting: read-out: Antiproliferative activity in cancerous cells, A549 (inhibition of cell growth).
Where [7] appears, read: read-out: Antiproliferative activity in cancerous cells, A549.

Take `C=CC1=C(CC(=O)O)c2ccccc2/C1=C\c1ccc(Oc2ccc(F)cc2)cc1` [C25, (Z)-2-(1-(4-(4-Fluorophenoxy)benzylidene)-2-vinyl-1H-inden-3-yl)acetic acid]: the inhibition at 10 µM in assay [1] was < 30%; in assay [2], ≥ 50%; in the assay with HepG2 (liver cancer), < 30%; in the assay with SW480 (colon cancer) it was 30 to 50%; in assay [3], ≥ 50%; in assay [4], < 30%. Also, the inhibition at 10 µM (in assay [5] (setting [6]); in the assay with HeLa (cervical cancer)) was 30 to 50% in each case. Besides, the inhibition at 3.3 µM is ≥ 50% in assay [2]; < 30% with HepG2 (liver cancer); 30 to 50% in the assay on SW480 (colon cancer); ≥ 50% in assay [3]; < 30% in assay [4]; < 30% in assay [5] (setting [6]). The inhibition at 3.3 µM in the assay with HeLa (cervical cancer) lay within 30 to 50%. The inhibition at 30 µM in assay [5] (setting [7]) lay in the range of 30 to 50%.

As for `CC1=C(CC(=O)O)c2cccc(F)c2/C1=C\c1cccc(COc2ccccc2)c1` [B9, (Z)-2-(7-Fluoro-2-methyl-1-(3-(phenoxymethyl)benzylidene)-1H-inden-3-yl)-acetic acid], the inhibition at 10 µM in assay [1] was 50 to 80%; in assay [2], 30 to 50%; in the assay with HepG2 (liver cancer), < 30%; with SW480 (colon cancer), < 30%; in assay [3] it was ≥ 50%; in assay [4], < 30%. Also, the inhibition at 10 µM (in assay [5] (setting [6]); with HeLa (cervical cancer)) was 30 to 50% each time. Besides, the inhibition at 3.3 µM was 30 to 50% in assay [2]; < 30% with HepG2 (liver cancer); < 30% in the assay with SW480 (colon cancer); < 30% in assay [3]; < 30% in assay [4]; 30 to 50% in assay [5] (setting [6]). Further, the inhibition at 3.3 µM in the assay with HeLa (cervical cancer) was < 30%. Also, the inhibition at 30 µM in assay [5] (setting [7]) was in the range of 30 to 50%.

Regarding `CCC1=C(CC(=O)O)c2cc(F)ccc2/C1=C\c1ccc(Oc2ccc(F)cc2)cc1` [C6, (Z)-2-(2-Ethyl-5-fluoro-1-(4-(4-fluorophenoxy)benzylidene)-1H-inden-3-yl)acetic acid], the inhibition at 10 µM in assay [1] is > 80%; in assay [2], ≥ 50%; in the assay with HepG2 (liver cancer), 30 to 50%; in the assay on SW480 (colon cancer), ≥ 50%; in assay [3] it was ≥ 50%; in assay [4] it was ≥ 50%. Moreover, the inhibition at 10 µM (in assay [5] (setting [6]); in the assay with HeLa (cervical cancer)) was ≥ 50% each time. Moreover, the inhibition at 3.3 µM in assay [2] was ≥ 50%; in the assay on HepG2 (liver cancer), < 30%; in the assay on SW480 (colon cancer), ≥ 50%; in assay [3], 30 to 50%; in assay [4], 30 to 50%; in assay [5] (setting [6]), 30 to 50%. Further, the inhibition at 3.3 µM in the assay on HeLa (cervical cancer) is ≥ 50%.

In the case of `CC1=C(CC(=O)O)c2c(F)ccc(F)c2/C1=C/c1cccc(C(F)(F)F)c1` [E13, (E)-2-(4,7-Difluoro-2-methyl-1-(3-(trifluoromethyl)benzylidene)-1H-inden-3-yl)-acetic acid], the inhibition at 10 µM was < 30% in assay [1]; < 30% in assay [2]; < 30% in the assay with HepG2 (liver cancer); < 30% with SW480 (colon cancer); ≥ 50% in assay [3]; 30 to 50% in assay [4]. Besides, the inhibition at 10 µM in assay [5] (setting [6]) was ≥ 50%; in the assay with HeLa (cervical cancer), 30 to 50%. The inhibition at 3.3 µM (in assay [2]; in the assay with HepG2 (liver cancer); in the assay with SW480 (colon cancer); in assay [3]; in assay [4]; in assay [5] (setting [6])) was < 30% throughout. Moreover, the inhibition at 3.3 µM with HeLa (cervical cancer) lay in the range of 30 to 50%. In addition, the inhibition at 30 µM in assay [2] (Compound concentration: 30 μM) is < 30%; with HepG2 (liver cancer) (Compound concentration: 30 μM), < 30%; with SW480 (colon cancer) (Compound concentration: 30 μM) it was < 30%; in assay [3] (B16-F10, Compound concentration: 30 μM), ≥ 50%; in assay [4] (A-431, Compound concentration: 30 μM), ≥ 50%; in assay [5] (setting [6]) it was ≥ 50%. In the assay on HeLa (cervical cancer) (Compound concentration: 30 μM), the inhibition at 30 µM was ≥ 50%.

In the case of `O=C(O)CC1=C(Cc2ccc(Oc3ccc(F)cc3)cc2)/C(=C/C2CC2)c2ccc(F)cc21` [A106, (Z)-2-(1-(Cyclopropylmethylene)-5-fluoro-2-(4-(4-fluorophenoxy)benzyl)-1H-inden-3-yl)acetic acid], the inhibition at 10 µM in assay [1] is > 80%; in assay [2], ≥ 50%; in the assay on HepG2 (liver cancer), ≥ 50%; with SW480 (colon cancer) it was ≥ 50%; in assay [3], ≥ 50%; in assay [4] it was ≥ 50%. Also, the inhibition at 10 µM (in assay [5] (setting [6]); with HeLa (cervical cancer)) was ≥ 50% in each case. Moreover, the inhibition at 3.3 µM in assay [2] is < 30%; in the assay on HepG2 (liver cancer) it was < 30%; with SW480 (colon cancer) it was < 30%; in assay [3], 30 to 50%; in assay [4], < 30%; in assay [5] (setting [6]), 30 to 50%. The inhibition at 3.3 µM in the assay on HeLa (cervical cancer) was in the range of 30 to 50%.
